Data: patent US6573258B2, “Photodynamic porphyrin antimicrobial agents” (Frontier Scientific, Inc., priority 2000, dated 2003)

Assays:
E. coli cells [1] = assay: Growth inhibition after 5 min incubation with porphyrin and white-light irradiation; assay type: cell-based, Escherichia coli; details: for concentration photoinducing significant bacteriostatic and bactericidal action: both cell strains (S. aureus and E. coli)
Protocol: (§1) The abilities of various examples of the porphyrins of the instant invention to kill Gram-negative and Gram-positive bacteria were tested against that of T4MPyP. Each of the compounds was incubated with E. coli and S. aureus cells for 5 minutes, following which the samples were irradiated with white light for varying lengths of time.
(§2) Escherichia coli strain O4 (wild type), and methycillin-resistant Staphylococcus aureus, strain MRSA 110, were grown aerobically at 37° C. in brain heart infusion broth (BHI, Difco, Detroit, Mich.). The cells in the stationary phase of growth were harvested by centrifugation (2,000 g for 15 min) of the broth cultures, washed twice with 10 mM PBS at pH=7.4, containing 2.7 mM KCl and 0.14 M NaCl, and suspended in PBS at a density of 10^8-10^9 cells/ml (absorbance of about 0.7 at 650 nm). Aliquots of 5 ml of the cell suspension were incubated with 1 μM porphyrins for 5 min in the dark at room temperature. After incubation the suspensions were centrifuged and the cell pellets were collected immediately or washed with PBS and centrifuged again for one or three times.
(§3) The toxic effects of T4MPyP and its analogues on E. coli and S. aureus cells were evaluated by measuring the extent of growth inhibition (bacteriostatic effect) and reduction of survival (cytocidal/bacteriocidal effect) following treatment with porphyrin in the dark or upon light exposure.
(§4) In all cases, 5 ml of the cell suspension (10^8-10^9 cells/ml) were incubated for 5 min in the dark at room temperature with the selected photosensitizer at concentrations ranging between 0.5 and 10 μM. After dark-incubation, some of the cell samples were irradiated with white light (150 mW/cm^2). During irradiation, (up to 30 min) the cells were kept at 37° C. and magnetically stirred. The treated and untreated control cells were diluted with BHI and maintained at 37° C. while the absorbance of the suspension at 650 nm was monitored at predetermined time periods for determining growth curves. The percent of growth inhibition in the treated cells was calculated by the following equation: […]
(§5) where AX, and AC are the absorbances measured after 3 h incubation, respectively, for the treated and control cell suspensions, respectively, while A0 represents the initial absorbance and the AC is that of the control cell suspension after 5 hours incubation. Cell survival was determined by plating serially diluted aliquots of treated and untreated cells on brain heart agar and counting the number of colonies after 18-24 h incubation at 37° C.

S. aureus cells [2] = assay: as above; assay type: cell-based, Staphylococcus aureus
Protocol: as §1, §2, §3
[…] After dark-incubation, some of the cell samples were irradiated with white light (150 mW/cm^2). During irradiation, (up to 30 min) the cells were kept at 37° C. and magnetically stirred. The treated and untreated control cells were diluted with BHI and maintained at 37° C. while the absorbance of the suspension at 650 nm was monitored at predetermined time periods for determining growth curves. The percent of growth inhibition in the treated cells was calculated by the following equation:
as §5

E. coli cells [3] = assay: Decrease of cell survival (colony counting) after white-light irradiation; assay type: cell-based, Escherichia coli; details: 1 μM porphyrin; for DECREASE OF SURVIVAL (log): 5 min dark incubation, 15 min white light (150 mW/cm^2)
Protocol: as §2, §3, §4, §5

[4] = Fluorescence quantum yields; assay type: physicochemical; details: for ΦF (PBS), fluorescence quantum yield: in PBS; for ΦF (SDS), fluorescence quantum yield: in aqueous 2% SDS
Protocol: Ground-state absorption spectra of the porphyrins (ca. 5 μM in phosphate buffered saline (PBS, pH=7.4) were recorded with a Lambda 5 Perkin-Elmer spectrophotometer. Fluorescence spectra, corrected for the instrumental response, were recorded with a Perkin-Elmer (model LS) or a Spex (Fluorolog F112) spectrofluorimeter. Fluorescence quantum yields ((IF) of the porphyrin derivatives in PBS and in water containing 2% sodium dodecylsulfate (a detergent, hereinafter “SDS”) were determined by measuring the area of the emission spectrum (600-800 nm range, excitation at 560 nm) and using tetra-n-propylporphycene in toluene as a reference (ΦF=0.38). Braslavsky et al, J. Photochem. Photobiol. B: Biol., 40:191-198 (1997). In all cases, the absorbance of the sample and the reference solution were kept below 0.1 at the excitation wavelength to minimize inner filter effects.

[5] = Fluorescence decay times (phase-shift method); assay type: physicochemical; details: ca. 5 μM, air-equilibrated buffer pH 7.4, λexc = 420 nm, λem > 600 nm; for A1, relative weight of fast component: dihydrochloride salt
Protocol: Fluorescence decay times of the porphyrin samples were measured by means of a Spex Fluorolog-τ2 spectrofluorimeter based on the phase-shift method. The frequency response curves (phase-shift and demodulation ratio vs. frequency) were globally analyzed.

[6] = Triplet state properties by laser flash photolysis; assay type: physicochemical; details: phosphate-buffered solution; for φT, triplet quantum yield: ε920 estimated by total depletion method
Protocol: Laser flash photolysis experiments were carried out by use of the setup previously described in Gomer, et al., with excitation wavelengths of 355 and 420 nm. Gorner, et al., Photoinduced electron transfer between styrylanthracenes and electron donors and acceptors in acetonitrile, J. Chem. Soc. Faraday Trans., vol. 88, pp. 29-34 (1992).
The transient spectra of the porphyrins in buffer solutions were recorded upon laser flash photolysis excitation at 355 and 420 nm. […] The decay (growth) of the signal (bleaching) occurred according to first-order kinetics and led to a complete recovery of the ground state with a lifetime of 91 μs. […] This also allowed the triplet quantum yield (φT) to be determined (see Table 3), after calibration of the experimental setup by use of an optically-matched solution of benzophenone in acetonitrile.

[7] = Photosensitized photooxidation of NATA; details: 10 μM NATA; for ΦSDS × 10^3, quantum yield for photo-oxidation of NATA: aqueous 2% SDS; for ΦPBS × 10^3, quantum yield for photo-oxidation of NATA: phosphate buffered solution
Protocol: The photosensitizing activity of the various porphyrins was tested by measuring their efficiency in promoting the photooxidation of N-acetyl-L-tryptophanamide (NATA, Aldrich Chem. Co.) as a model biological substrate. Toward this aim, 10 μM NATA in PBS or in water containing 2% SDS was irradiated in the presence of 5 μM porphyrin. The irradiations were performed with 515±10 nm-light isolated by means of an interference filter (Balzers, Liechtenstein), while the solution (2 ml) was magnetically stirred in a quartz cuvette of 1-cm optical path and kept at 25° C. The photosensitized modification of NATA was followed by measuring the decrease in the intensity of its fluorescence emission spectrum (300-450 nm) upon excitation with 290 nm-light at various irradiation times. Plots of in F°/F (where F° and F represent the fluorescence intensity at time 0 and t, respectively) vs. the irradiation time allowed the first-order rate constants of the photo-process to be derived.
The intensity of the incident light was measured by using Aberchrome 999P in toluene as an actinometer. Heller, EPA Newslett., 29:49-60 (1987). This parameter was used to calculate the quantum yields of NATA photooxidation sensitized by the different porphyrins.

S. aureus cells [8] = assay: Dark toxicity of porphyrins on bacteria cells; assay type: cell-based, Staphylococcus aureus; details: 10 μM, 5 min incubation in the dark
Protocol: as §3, §4, §5

E. coli cells [9] = assay: Dark toxicity of porphyrins on bacteria cells; assay type: cell-based, Escherichia coli; details: 10 μM, 5 min incubation in the dark
Protocol: as §3, §4, §5

[10] = 0.5 μM, incubated 5 min, white light 5 min
[11] = 0.5 μM, incubated 5 min, white light 10 min
[12] = Table 5: 0.5 μM, 5 min incubation, 5 min white light (150 mW/cm^2)
[13] = Table 5: 1 μM, 5 min incubation, 5 min white light (150 mW/cm^2)

Row | Compound | Growth inhibition (%) E. coli (E. coli cells [1]; [10]) | Growth inhibition (%) E. coli (E. coli cells [1]; [11]) | Growth inhibition (%) E. coli (E. coli cells [1]; [12]) | concentration photoinducing significant bacteriostatic and bactericidal action (E. coli cells [1]) | Growth inhibition (%) S. aureus (S. aureus cells [2]; [10]) | Growth inhibition (%) S. aureus (S. aureus cells [2]; [11]) | Growth inhibition (%) S. aureus (S. aureus cells [2]; [12]) | DECREASE OF SURVIVAL (log) (E. coli cells [3]) | ΦF (PBS), fluorescence quantum yield [4] | ΦF (SDS), fluorescence quantum yield [4] | A2, relative weight of slow component [5] | τ1, fluorescence decay time of fast component [5] | τ2, fluorescence decay time of slow component [5] | A1, relative weight of fast component [5] | λmax of transient spectrum [6] | λmin of transient spectrum [6] | φ×ε920 [6] | τ^N2, triplet lifetime [6] | τ^air, triplet lifetime [6] | φT, triplet quantum yield [6] | other results
1 | C[n+]1ccc(-c2c3nc(c(-c4cc[n+](C)cc4)c4ccc([nH]4)c(-c4cc[n+](Cc5ccccc5)cc4)c4nc(c(-c5cc[n+](C)cc5)c5ccc2[nH]5)C=C4)C=C3)cc1.Cl.Cl.[Cl-].[Cl-].[Cl-].[Cl-] [mono-benzyl, 5-(4-N-benzylpyridyl)-10,15,20-tris(4-N-methylpyridyl)-21H,23H-porphine tetrachloride dihydrochloride salt] | – | – | – | – | – | – | – | – | – | – | – | – | – | – | – | – | – | – | – | – | Growth inhibition (%) E. coli (E. coli cells [1]; 10 μM, incubated 5 min, white light 5 min): 54.1%; Growth inhibition (%) E. coli (E. coli cells [1]; 10 μM, incubated 5 min, white light 10 min): 100%; photodynamic effectiveness relative to base porphyrin (E. coli cells [1]; same conditions as base porphyrin): about twice as effective as the base porphyrin
2 | CCCCCCCCCCCCCC[n+]1ccc(-c2c3nc(c(-c4cc[n+](C)cc4)c4ccc([nH]4)c(-c4cc[n+](C)cc4)c4nc(c(-c5cc[n+](C)cc5)c5ccc2[nH]5)C=C4)C=C3)cc1.Cl.Cl.[Cl-].[Cl-].[Cl-].[Cl-] [Porphyrin C14, 5-(4-N-tetradecylpyridyl)-10,15,20-tris(4-N-methylpyridyl)-21H,23H-porphine tetrachloride dihydrochloride salt] | 81.8% | 100% | 82% | ten-fold lower concentration | 72.7% | 88.9% | 73% | −4.35 ± 0.45 log | 0.019 | 0.022 | 98% | 1.0 ns | 6.5 ns | 2% | 480 nm | 425 nm | 9762 M⁻¹ cm⁻¹ | 70 μs | 20 μs | 0.48 | drop in survival of E. coli cells (E. coli cells [3]; 15 min irradiation): 4 log; ΦSDS × 10^3, quantum yield for photo-oxidation of NATA [7]: 0.71 ± 0.03; ΦPBS × 10^3, quantum yield for photo-oxidation of NATA [7]: 0.66 ± 0.10; inhibition of bacterial cell growth in the dark (S. aureus cells [8]): complete inhibition; inhibition of bacterial cell growth in the dark (E. coli cells [9]): complete inhibition
3 | CCCCCCCCCCCCCCCCCC[n+]1ccc(-c2c3nc(c(-c4cc[n+](C)cc4)c4ccc([nH]4)c(-c4cc[n+](C)cc4)c4nc(c(-c5cc[n+](C)cc5)c5ccc2[nH]5)C=C4)C=C3)cc1.Cl.Cl.[Cl-].[Cl-].[Cl-].[Cl-] [Porphyrin C18, 5-(4-N-octadecylpyridyl)-10,15,20-tris(4-N-methylpyridyl)-21H,23H-porphine tetrachloride dihydrochloride salt] | 26% | 56.6% | 26% | ten-fold lower concentration | 41.4% | 58.1% | 42% | −2.78 ± 0.62 log | 0.022 | 0.024 | 97% | 1.4 ns | 9.0 ns | 3% | 470 nm | 420 nm | 2700 M⁻¹ cm⁻¹ | 74 μs | 21 μs | 0.17 | Growth inhibition (%) E. coli (E. coli cells [1]; 1 μM, incubated 5 min, white light 5 min): 57.9%; Growth inhibition (%) E. coli (E. coli cells [1]; 1 μM, incubated 5 min, white light 10 min): 95.7%; Growth inhibition (%) E. coli (E. coli cells [1]; [13]): 58%; Growth inhibition (%) S. aureus (S. aureus cells [2]; 0.1 μM, incubated 5 min, white light 5 min): 12.7%; Growth inhibition (%) S. aureus (S. aureus cells [2]; 0.1 μM, incubated 5 min, white light 10 min): 20.2%; Growth inhibition (%) S. aureus (S. aureus cells [2]; [13]): 59%; ΦSDS × 10^3, quantum yield for photo-oxidation of NATA [7]: 0.80 ± 0.04; ΦPBS × 10^3, quantum yield for photo-oxidation of NATA [7]: 0.14 ± 0.01; inhibition of bacterial cell growth in the dark (S. aureus cells [8]): complete inhibition; inhibition of bacterial cell growth in the dark (E. coli cells [9]): complete inhibition
